In brackets after ≈: the same amount, converted by molar mass.
Key:
[1] = molecular target: High affinity nerve growth factor receptor (Homo sapiens, UniProt P04629)
[2] = molecular target: BDNF/NT-3 growth factors receptor (Homo sapiens, UniProt Q16620)
[3] = molecular target: T1, Voltage-gated inwardly rectifying potassium channel KCNH2 (Homo sapiens, UniProt Q12809)
[4] = human, hepatocytes, 4 h, 1 µM
in vitro = conditions: human, liver microsomes
human BCRP [5] = experiment: in vitro; conditions: dog
physchem [6] = conditions: buffer, pH 6.5
physchem [7] = conditions: octanol/water, pH 7.4
MDR1 (P-gp) = experiment: in vitro; conditions: dog, MDCK-MDR1
human BCRP [8] = experiment: in vitro; conditions: dog; remark: listed apart in the source
Aldehyde oxidase [9] = molecular target: T2, Aldehyde oxidase (Homo sapiens, UniProt Q06278); experiment: Drug metabolism in human liver S9 fractions assessed as AO-mediated oxidation at 2-aminopyrimidyl ring at 10 uM incubated for 60 mins in absence of CYP cofactor NADP by HPLC-UV chromatography; assay type: ADME, subcellular; conditions: s9, 1 h
T2 sequence (Q06278 whole entry): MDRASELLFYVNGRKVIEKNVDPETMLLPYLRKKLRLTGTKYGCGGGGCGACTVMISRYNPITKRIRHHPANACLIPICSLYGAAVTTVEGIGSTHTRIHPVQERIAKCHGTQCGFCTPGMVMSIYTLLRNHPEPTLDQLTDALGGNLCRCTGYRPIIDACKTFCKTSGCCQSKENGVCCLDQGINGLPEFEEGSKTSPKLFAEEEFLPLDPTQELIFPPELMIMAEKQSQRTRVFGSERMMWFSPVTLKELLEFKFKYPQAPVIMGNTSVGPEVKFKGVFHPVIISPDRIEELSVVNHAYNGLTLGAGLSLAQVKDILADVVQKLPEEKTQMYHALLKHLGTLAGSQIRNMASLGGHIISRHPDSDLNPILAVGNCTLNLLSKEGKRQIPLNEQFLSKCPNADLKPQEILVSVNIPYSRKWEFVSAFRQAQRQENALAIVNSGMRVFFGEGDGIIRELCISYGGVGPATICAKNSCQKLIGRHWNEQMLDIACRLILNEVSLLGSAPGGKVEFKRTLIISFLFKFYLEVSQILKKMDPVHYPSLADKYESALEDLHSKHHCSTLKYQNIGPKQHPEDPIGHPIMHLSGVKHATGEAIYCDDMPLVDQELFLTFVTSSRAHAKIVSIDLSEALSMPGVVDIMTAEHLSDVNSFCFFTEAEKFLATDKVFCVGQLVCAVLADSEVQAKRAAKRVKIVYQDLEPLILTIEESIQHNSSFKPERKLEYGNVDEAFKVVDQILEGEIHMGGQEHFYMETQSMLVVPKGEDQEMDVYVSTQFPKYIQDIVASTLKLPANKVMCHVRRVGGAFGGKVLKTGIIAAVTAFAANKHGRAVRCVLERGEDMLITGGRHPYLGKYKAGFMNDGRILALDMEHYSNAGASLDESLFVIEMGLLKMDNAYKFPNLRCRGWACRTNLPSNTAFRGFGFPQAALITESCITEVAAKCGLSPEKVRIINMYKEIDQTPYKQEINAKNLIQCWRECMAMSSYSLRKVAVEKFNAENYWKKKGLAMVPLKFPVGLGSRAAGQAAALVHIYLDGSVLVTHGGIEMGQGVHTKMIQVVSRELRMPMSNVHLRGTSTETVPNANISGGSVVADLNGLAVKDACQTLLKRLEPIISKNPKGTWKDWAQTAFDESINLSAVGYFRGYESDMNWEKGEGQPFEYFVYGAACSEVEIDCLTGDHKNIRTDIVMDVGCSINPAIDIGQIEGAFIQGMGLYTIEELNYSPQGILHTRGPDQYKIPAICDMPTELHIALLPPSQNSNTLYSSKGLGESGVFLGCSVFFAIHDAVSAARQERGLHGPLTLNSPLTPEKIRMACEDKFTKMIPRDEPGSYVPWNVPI

Aldehyde oxidase [10] = molecular target: T2, Aldehyde oxidase; experiment: Drug metabolism in human liver S9 fractions assessed as AO-mediated oxidation at fluoro-pyrrolopyridine motif at 10 uM incubated for 60 mins in absence of CYP cofactor NADP by HPLC-UV chromatography; assay type: ADME, subcellular; conditions: s9, 1 h
Aldehyde oxidase [11] = molecular target: T2, Aldehyde oxidase; experiment: Drug metabolism in human liver S9 fractions assessed as AO-mediated oxidation on pyrrolopyrimidine-hinge binding group at 10 uM incubated for 60 mins in absence of CYP cofactor NADP by HPLC-UV chromatography; assay type: ADME, subcellular; conditions: s9, 1 h
Aldehyde oxidase [12] = molecular target: T2, Aldehyde oxidase; experiment: Drug metabolism in human liver S9 fractions assessed as AO-mediated oxidation on central pyridine substituent at 10 uM incubated for 60 mins in absence of CYP cofactor NADP by HPLC-UV chromatography; assay type: ADME, subcellular; conditions: s9, 1 h
[13] = Clearance in rat at 1 mg/kg, iv; assay type: ADME, organism-based; conditions: in vivo
[14] = Clearance in rat at 1 mg/kg, iv relative to hepatic blood flow; assay type: ADME, organism-based; conditions: in vivo
[15] = Volume of distribution in rat at 1 mg/kg, iv; assay type: ADME, organism-based; conditions: in vivo, read-out: Vdss
[16] = Half life in rat at 1 mg/kg, iv; assay type: ADME, organism-based; conditions: in vivo
[17] = Oral bioavailability in rat at 3 mg/kg; assay type: ADME, organism-based; conditions: in vivo
[18] = Toxicity in rat assessed as drug tolerability at 400 mg/kg/day during 7 day toxicological study; assay type: organism-based; conditions: in vivo, 168 h
[19] = molecular target: T1, Voltage-gated inwardly rectifying potassium channel KCNH2; remark: listed apart in the source
in vivo = conditions: rat, brain and plasma, po, 100 mg/kg
Aldehyde oxidase [20] = molecular target: T2, Aldehyde oxidase; experiment: Drug metabolism in human liver S9 fractions assessed as AO-mediated mono-oxidised metabolite formation at 10 uM incubated for 60 mins in absence of CYP cofactor NADP by HPLC-UV chromatography; assay type: ADME, subcellular; conditions: s9, 1 h
Aldehyde oxidase [21] = molecular target: T2, Aldehyde oxidase; experiment: Drug metabolism in human liver S9 fractions assessed as AO-mediated mono-oxidised metabolite formation at 10 uM incubated for 60 mins in absence of CYP cofactor NADP and in presence of 50 uM AO inhibitor menadione by HPLC-UV chromatography; assay type: ADME, subcellular; conditions: s9, 1 h
Aldehyde oxidase [22] = molecular target: T2, Aldehyde oxidase; experiment: Drug metabolism in human liver S9 fractions assessed as AO-mediated mono-oxidised metabolite formation at 10 uM incubated for 60 mins in absence of CYP cofactor NADP and in presence of 50 uM XO inhibitor allopurinol by HPLC-UV chromatography; assay type: ADME, subcellular; conditions: s9, 1 h
Aldehyde oxidase [23] = molecular target: T2, Aldehyde oxidase; experiment: Drug metabolism in human liver S9 fractions assessed as AO-mediated oxidation on amino-pyrrolopyrimidine hinge binding group and central pyridine substituent at 10 uM incubated for 60 mins in absence of CYP cofactor NADP by HPLC-UV chromatography; assay type: ADME, subcellular; conditions: s9, 1 h
Aldehyde oxidase [24] = molecular target: T2, Aldehyde oxidase; experiment: Drug metabolism in human liver S9 fractions assessed as AO-mediated oxidation on pyrrolopyrimidine-hinge binding group and the central pyridine substituent at 10 uM incubated for 60 mins in absence of CYP cofactor NADP by HPLC-UV chromatography; assay type: ADME, subcellular; conditions: s9, 1 h
Aldehyde oxidase [25] = molecular target: T2, Aldehyde oxidase; experiment: Drug metabolism in human liver S9 fractions assessed as AO-mediated amide hydrolysis at 10 uM incubated for 60 mins in absence of CYP cofactor NADP by HPLC-UV chromatography; assay type: ADME, subcellular; conditions: s9, 1 h

Chain of High affinity nerve growth factor receptor (P04629 whole entry): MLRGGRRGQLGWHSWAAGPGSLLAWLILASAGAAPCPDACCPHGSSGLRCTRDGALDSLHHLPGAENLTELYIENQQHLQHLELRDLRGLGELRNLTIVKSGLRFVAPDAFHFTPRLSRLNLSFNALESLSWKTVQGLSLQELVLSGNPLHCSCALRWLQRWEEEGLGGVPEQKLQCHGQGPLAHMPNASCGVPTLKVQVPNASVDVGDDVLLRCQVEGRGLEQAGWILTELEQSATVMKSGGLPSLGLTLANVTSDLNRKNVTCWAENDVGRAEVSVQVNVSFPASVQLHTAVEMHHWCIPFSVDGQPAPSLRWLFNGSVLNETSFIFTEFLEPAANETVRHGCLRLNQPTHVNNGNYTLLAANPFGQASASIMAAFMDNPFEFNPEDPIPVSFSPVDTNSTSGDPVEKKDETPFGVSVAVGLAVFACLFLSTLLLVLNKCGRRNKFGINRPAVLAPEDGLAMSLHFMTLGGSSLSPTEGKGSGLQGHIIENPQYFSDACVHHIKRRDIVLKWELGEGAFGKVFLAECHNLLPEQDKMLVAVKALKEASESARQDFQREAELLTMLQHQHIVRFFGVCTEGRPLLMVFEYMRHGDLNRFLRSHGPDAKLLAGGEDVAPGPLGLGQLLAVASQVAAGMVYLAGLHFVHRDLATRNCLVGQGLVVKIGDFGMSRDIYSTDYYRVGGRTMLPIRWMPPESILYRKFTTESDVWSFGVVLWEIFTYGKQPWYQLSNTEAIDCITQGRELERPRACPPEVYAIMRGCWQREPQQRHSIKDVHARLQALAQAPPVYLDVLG
Chain of BDNF/NT-3 growth factors receptor (Q16620 whole entry): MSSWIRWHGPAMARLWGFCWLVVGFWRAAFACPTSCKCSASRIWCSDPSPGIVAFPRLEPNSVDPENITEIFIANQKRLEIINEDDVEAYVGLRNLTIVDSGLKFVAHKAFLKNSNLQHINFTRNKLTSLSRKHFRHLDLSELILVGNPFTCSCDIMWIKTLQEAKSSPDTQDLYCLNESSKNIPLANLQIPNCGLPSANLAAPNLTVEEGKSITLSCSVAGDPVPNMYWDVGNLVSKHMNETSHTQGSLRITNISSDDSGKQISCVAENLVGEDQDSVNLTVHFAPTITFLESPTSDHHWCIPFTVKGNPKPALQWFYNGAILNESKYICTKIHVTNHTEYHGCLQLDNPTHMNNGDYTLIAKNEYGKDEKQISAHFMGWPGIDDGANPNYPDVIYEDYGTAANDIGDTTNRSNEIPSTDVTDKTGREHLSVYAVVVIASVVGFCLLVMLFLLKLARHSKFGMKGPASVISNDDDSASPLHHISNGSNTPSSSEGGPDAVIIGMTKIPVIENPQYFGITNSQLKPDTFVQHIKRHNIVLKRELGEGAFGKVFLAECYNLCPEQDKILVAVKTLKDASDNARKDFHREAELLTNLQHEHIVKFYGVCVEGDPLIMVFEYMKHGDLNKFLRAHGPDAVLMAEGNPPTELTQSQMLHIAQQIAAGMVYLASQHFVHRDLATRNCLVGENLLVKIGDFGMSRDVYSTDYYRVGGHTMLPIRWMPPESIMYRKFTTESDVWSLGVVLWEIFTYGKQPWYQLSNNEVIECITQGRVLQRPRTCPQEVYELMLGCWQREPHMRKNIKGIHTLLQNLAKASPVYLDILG
T1 sequence (Q12809 whole entry): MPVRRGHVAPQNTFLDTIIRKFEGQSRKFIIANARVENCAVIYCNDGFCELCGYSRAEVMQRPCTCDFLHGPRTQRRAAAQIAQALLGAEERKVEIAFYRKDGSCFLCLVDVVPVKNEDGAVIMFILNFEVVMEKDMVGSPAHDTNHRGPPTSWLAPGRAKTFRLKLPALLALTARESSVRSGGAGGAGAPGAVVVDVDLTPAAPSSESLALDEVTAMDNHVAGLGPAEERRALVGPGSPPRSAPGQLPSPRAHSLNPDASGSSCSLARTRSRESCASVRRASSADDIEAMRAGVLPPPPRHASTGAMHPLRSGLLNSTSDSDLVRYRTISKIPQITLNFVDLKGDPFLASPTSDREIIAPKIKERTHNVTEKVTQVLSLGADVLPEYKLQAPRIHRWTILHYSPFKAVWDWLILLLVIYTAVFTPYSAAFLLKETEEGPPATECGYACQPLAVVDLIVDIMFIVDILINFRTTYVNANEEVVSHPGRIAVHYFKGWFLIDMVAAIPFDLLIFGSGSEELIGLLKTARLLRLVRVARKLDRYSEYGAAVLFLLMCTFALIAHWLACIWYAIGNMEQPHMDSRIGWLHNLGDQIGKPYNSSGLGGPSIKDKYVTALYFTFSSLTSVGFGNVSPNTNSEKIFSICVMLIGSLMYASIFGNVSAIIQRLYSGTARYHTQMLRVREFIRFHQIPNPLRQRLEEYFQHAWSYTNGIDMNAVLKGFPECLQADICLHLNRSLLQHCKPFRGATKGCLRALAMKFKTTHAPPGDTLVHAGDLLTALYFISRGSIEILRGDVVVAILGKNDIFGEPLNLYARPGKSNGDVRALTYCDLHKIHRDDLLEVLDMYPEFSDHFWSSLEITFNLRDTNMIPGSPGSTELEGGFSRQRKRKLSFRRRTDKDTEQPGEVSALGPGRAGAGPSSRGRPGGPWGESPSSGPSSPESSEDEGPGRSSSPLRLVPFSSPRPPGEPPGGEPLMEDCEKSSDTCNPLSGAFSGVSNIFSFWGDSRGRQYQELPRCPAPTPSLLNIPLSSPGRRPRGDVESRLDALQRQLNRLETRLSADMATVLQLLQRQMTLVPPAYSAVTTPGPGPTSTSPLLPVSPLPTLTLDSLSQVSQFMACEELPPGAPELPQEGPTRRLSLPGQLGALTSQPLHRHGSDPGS

| SMILES | IC50 [1] [nM] | IC50 [2] [nM] | Ki [3] [nM] | CLH(app) [4] [µL/min] | microsomal CLint at 1 h, 1 µM (in vitro) [µL/min/mg] | Papp A→B (human BCRP [5]) [×10⁻⁶ cm/s] | solubility (physchem [6]) [µM] | logD (physchem [7]) | efflux ratio (MDR1 (P-gp)) | further results |
| --- | --- | --- | --- | --- | --- | --- | --- | --- | --- | --- |
| CC(C)n1cc(C(=O)c2cncc(NC(=O)Cc3ccc(Cl)cc3)c2)c2cncnc21 | 12 | 4 | 5200 | 37 | 22 | 9.9 | 17.5 (≈ 7.59 µg/mL) | 3.7 |  |  |
| CC(C)n1cc(C(=O)c2cncc(NC(=O)Cn3ccc(C4CC4)n3)c2)c2cncnc21 | 18 | 4 | 11900 | 12 | 25 | 18.4 |  | 2.5 | 5.8 | efflux ratio (human BCRP [8]): 38 |
| CC(C)n1cc(C(=O)c2cncc(NC(=O)Cc3ccc(Cl)cc3)c2)c2cnc(N)nc21 | 6 | 2 | 16900 | 14 | < 8 | 5.2 | 12 (≈ 5.39 µg/mL) | 4.2 |  | Drug metabolism (Aldehyde oxidase [9]): Metabolite_Notdetected |
| CC(C)n1cc(C(=O)c2cncc(NC(=O)Cn3ccc(C4CC4)n3)c2)c2cnc(N)nc21 | 8 | 5 | 38900 | 24 | 8 | 15.8 | 30 (≈ 13.3 µg/mL) | 2.5 |  | Drug metabolism (Aldehyde oxidase [9]): Metabolite_Notdetected |
| CC(C)n1cc(C(=O)c2cc(NC(=O)Cc3ccc(Cl)cc3)ccn2)c2cncc(F)c21 |  |  |  |  |  |  |  |  |  | Drug metabolism (Aldehyde oxidase [10]): Metabolite_Notdetected |
| CC(C)n1cc(C(=O)c2cncc(NC(=O)Cn3ccc(C4CC4)n3)c2)c2cnccc21 | 17 | 5 | 1400 | 23 | 35 | 19.8 |  | 2.7 | 12.5 |  |
| CC(C)n1cc(C(=O)c2cncc(NC(=O)Cn3ccc(C(F)(F)F)n3)c2)c2cnccc21 | 13 | 7 | 1400 | 12 | < 8 | 11.3 | 7.5 (≈ 3.42 µg/mL) | 3 |  | Drug metabolism (Aldehyde oxidase [11]): Metabolite_Notdetected; Drug metabolism (Aldehyde oxidase [12]): Metabolite_Detected; clearance [13]: 50 mL/min/kg; CL [14]: 70%; Vd [15]: 1.5 L/kg; half-life [16]: 2.3 h; bioavailability [17]: 16%; Activity [18]: Non-Toxic; IC50 [19]: 1600 nM; Kp uu at 3 h (in vivo): 0.0083 |
| CC(C)n1cc(C(=O)c2cncc(NC(=O)Cn3ccc(C4CC4)n3)c2)c2cncc(F)c21 | 33 | 7 | 11300 |  | 37 | 15.4 |  | 3.5 | 3.8 |  |
| CC(C)n1cc(C(=O)c2ccnc(NC(=O)Cc3ccc(F)cc3F)c2)c2c(N)ncnc21 | 3 |  | 8300 |  | 23 | 24.1 | 13.6 (≈ 6.13 µg/mL) | 4.3 | 10.9 | efflux ratio (human BCRP [8]): 10.9 |
| CC(C)(CO)n1cc(C(=O)c2cncc(NC(=O)Cc3ccc(Cl)cc3)c2)c2cnc(N)nc21 |  |  | > 4300 | 11.2 | < 8 | 6.4 | 29 (≈ 13.9 µg/mL) | 3.7 |  |  |
| C[C@H](CO)n1cc(C(=O)c2ccnc(NC(=O)Cc3ccc(C#N)cc3)c2)c2cncnc21 |  |  |  |  |  |  |  |  |  | Drug metabolism (Aldehyde oxidase [20]): Metabolite_Detected; Drug metabolism (Aldehyde oxidase [21]): Metabolite_Notdetected; Drug metabolism (Aldehyde oxidase [22]): Metabolite_Detected |
| CC(C)n1cc(C(=O)c2cncc(NC(=O)Cc3ccc(C#N)cc3)c2)c2c(N)ncnc21 | 73 | 8 | 9700 | 7 | 22 | 12.1 | 4.4 (≈ 1.93 µg/mL) | 2.5 | 27 | Drug metabolism (Aldehyde oxidase [23]): Metabolite_Detected; Drug metabolism (Aldehyde oxidase [24]): Metabolite_Detected; Drug metabolism (Aldehyde oxidase [25]): Metabolite_Detected; Kp uu at 3 h (in vivo): 0.013 |
